Measurements taken from PubChem BioAssay AID1963854 (Molecular Pharmacology Branch, DTP, NCI, 2024).

Tested on: 186277-243-T-J2-PDC complex spheroid viability
Test: Anticancer human tumor 186277-243-T-J2-PDC patient-derived colon adenocarcinoma cell line growth inhibition [POLQ]
Conditions: for IC50: curve of first compound; for viability, T/C: stronger effect = lower value
How it was run: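 PDC + HUVEC + MSC complex spheroids; POLQ inhibitors ± partner drugs; top conc. at/near clinical Cmax, else 10 microM (SN-38 1 microM), half-log dilutions; 37 degrees C, 5% CO2.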

[1] = second compound 0.0316 µM, first compound 0.0316 µM
[2] = second compound 0.0316 µM, first compound 0.1 µM
[3] = second compound 0.0316 µM, first compound 0.316 µM
[4] = second compound 0.0316 µM, first compound 1 µM
[5] = second compound 0.1 µM, first compound 0.0316 µM
[6] = second compound 0.1 µM, first compound 0.1 µM
[7] = second compound 0.1 µM, first compound 0.316 µM
[8] = second compound 0.1 µM, first compound 1 µM
[9] = second compound 0.316 µM, first compound 0.0316 µM
[10] = second compound 0.316 µM, first compound 0.1 µM
[11] = second compound 0.316 µM, first compound 0.316 µM
[12] = second compound 0.316 µM, first compound 1 µM
[13] = second compound 1 µM, first compound 0.0316 µM
[14] = second compound 1 µM, first compound 0.1 µM
[15] = second compound 1 µM, first compound 0.316 µM
[16] = second compound 1 µM, first compound 1 µM
[17] = second compound 3.16 µM, first compound 0.0316 µM
[18] = second compound 3.16 µM, first compound 0.1 µM
[19] = second compound 3.16 µM, first compound 0.316 µM
[20] = second compound 3.16 µM, first compound 1 µM
[21] = second compound 10 µM, first compound 0.0316 µM
[22] = second compound 10 µM, first compound 0.1 µM
[23] = second compound 10 µM, first compound 0.316 µM
[24] = second compound 10 µM, first compound 1 µM
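Further: spheroids exposed to compounds for seven days.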
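Wherever viability, T/C is given: 100% = DMSO vehicle control viability.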

## O=C(c1cc(Cc2n[nH]c(=O)c3ccccc23)ccc1F)N1CCN(C(=O)C2CC2)CC1 + Nc1ccc(C#CCN(C(=O)Cc2ncc(C(F)(F)F)cc2C(F)(F)F)c2ccc(F)cc2)nn1
Second compound 0.0316 µM
  IC50: > 10 µM
Second compound 0.1 µM
  IC50: > 10 µM
Second compound 0.316 µM
  IC50: > 10 µM
Second compound 1 µM
  IC50: > 10 µM
Second compound 3.16 µM
  IC50: > 10 µM
Second compound 10 µM
  IC50: > 10 µM
[1]
  viability, T/C: 105%
[2]
  viability, T/C: 89.9%
[3]
  viability, T/C: 106%
[4]
  viability, T/C: 92.3%
Second compound 0.0316 µM, first compound 3.16 µM
  viability, T/C: 107%
Second compound 0.0316 µM, first compound 10 µM
  viability, T/C: 121%
[5]
  viability, T/C: 97.5%
[6]
  viability, T/C: 91.6%
[7]
  viability, T/C: 111%
[8]
  viability, T/C: 101%
Second compound 0.1 µM, first compound 3.16 µM
  viability, T/C: 104%
Second compound 0.1 µM, first compound 10 µM
  viability, T/C: 117%
[9]
  viability, T/C: 100%
[10]
  viability, T/C: 96.7%
[11]
  viability, T/C: 98.2%
[12]
  viability, T/C: 93.7%
Second compound 0.316 µM, first compound 3.16 µM
  viability, T/C: 102%
Second compound 0.316 µM, first compound 10 µM
  viability, T/C: 120%
[13]
  viability, T/C: 96.1%
[14]
  viability, T/C: 101%
[15]
  viability, T/C: 98.7%
[16]
  viability, T/C: 105%
Second compound 1 µM, first compound 3.16 µM
  viability, T/C: 115%
Second compound 1 µM, first compound 10 µM
  viability, T/C: 108%
[17]
  viability, T/C: 95%
[18]
  viability, T/C: 107%
[19]
  viability, T/C: 110%
[20]
  viability, T/C: 95.2%
Second compound 3.16 µM, first compound 3.16 µM
  viability, T/C: 110%
Second compound 3.16 µM, first compound 10 µM
  viability, T/C: 105%
[21]
  viability, T/C: 106%
[22]
  viability, T/C: 110%
[23]
  viability, T/C: 99.5%
[24]
  viability, T/C: 102%
Second compound 10 µM, first compound 3.16 µM
  viability, T/C: 117%
Second compound 10 µM, first compound 10 µM
  viability, T/C: 95.1%

## COc1cccc(OCCCN)c1-c1cc(Nc2cnc(C#N)cn2)n[nH]1 + Nc1ccc(C#CCN(C(=O)Cc2ncc(C(F)(F)F)cc2C(F)(F)F)c2ccc(F)cc2)nn1
Second compound 0.0316 µM
  IC50: < 0.00316 µM
Second compound 0.1 µM
  IC50: < 0.00316 µM
Second compound 0.316 µM
  IC50: < 0.00316 µM
Second compound 1 µM
  IC50: < 0.00316 µM
Second compound 3.16 µM
  IC50: < 0.00316 µM
Second compound 10 µM
  IC50: < 0.00316 µM
Second compound 0.0316 µM, first compound 0.00316 µM
  viability, T/C: 47%
Second compound 0.0316 µM, first compound 0.01 µM
  viability, T/C: 13.1%
[1]
  viability, T/C: 10.3%
[2]
  viability, T/C: 9.69%
[3]
  viability, T/C: 9.94%
[4]
  viability, T/C: 10.9%
Second compound 0.1 µM, first compound 0.00316 µM
  viability, T/C: 38.6%
Second compound 0.1 µM, first compound 0.01 µM
  viability, T/C: 13.4%
[5]
  viability, T/C: 9.59%
[6]
  viability, T/C: 9.13%
[7]
  viability, T/C: 8.61%
[8]
  viability, T/C: 9.39%
Second compound 0.316 µM, first compound 0.00316 µM
  viability, T/C: 37.4%
Second compound 0.316 µM, first compound 0.01 µM
  viability, T/C: 13.8%
[9]
  viability, T/C: 9.62%
[10]
  viability, T/C: 8.58%
[11]
  viability, T/C: 10.1%
[12]
  viability, T/C: 9.81%
Second compound 1 µM, first compound 0.00316 µM
  viability, T/C: 37.2%
Second compound 1 µM, first compound 0.01 µM
  viability, T/C: 11.3%
[13]
  viability, T/C: 9.81%
[14]
  viability, T/C: 8.9%
[15]
  viability, T/C: 10.1%
[16]
  viability, T/C: 9.12%
Second compound 3.16 µM, first compound 0.00316 µM
  viability, T/C: 27.5%
Second compound 3.16 µM, first compound 0.01 µM
  viability, T/C: 10.3%
[17]
  viability, T/C: 9.29%
[18]
  viability, T/C: 8.63%
[19]
  viability, T/C: 10.8%
[20]
  viability, T/C: 10.4%
Second compound 10 µM, first compound 0.00316 µM
  viability, T/C: 17.6%
Second compound 10 µM, first compound 0.01 µM
  viability, T/C: 8.38%
[21]
  viability, T/C: 9.28%
[22]
  viability, T/C: 8.09%
[23]
  viability, T/C: 9.97%
[24]
  viability, T/C: 9.55%
